Test results taken from patent US20230174472A1, “THERAPEUTIC USE OF PLEUROMUTILINS” (priority 2020, published 2023).
≈ marks a conversion by molar mass, not a printed value. Like-named read-outs stand apart in the source and are kept apart here.

Assays:
[1] = tested on: influenza virus (strain A/PR/8/34); test: inhibition of virus-induced CPE, influenza virus in MDCK cells; format: cell-based; details: unidentified influenza virus, PR/8, MDCK, read-out: maximum inhibition of the influenza mediated CPE
[2] = tested on: Dengue virus (strain DENV2New Guinea); test: inhibition of virus-induced CPE, Dengue virus in Huh7 cells; format: cell-based; details: Huh-7, 4 h pre-incubation
Procedure: The Dengue virus strain DENV2New Guinea was obtained from ATCC (VR-1584) and was grown in Rhesus monkey kidney cells for the production of stock virus pools.
(§1) Cell viability determination as well as EC50 and TC50 calculations were performed as described in Examples 6 and 8.

in vitro [3] = details: human
[4] = tested on: mice challenged with lipopolysaccharide (LPS); test: LPS induced lung neutrophilia model, BALF cell counts 4 h post LPS (Example 1)
[5] = tested on: TNF-α, IL-6, IL-1β, GM-CSF, CXCL1, CXCL2, CCL2, MMP9 in lung homogenate; test: LPS induced lung neutrophilia model, marker concentrations in lung homogenate (Example 2)
[6] = tested on: Zika virus (strain ZIKVPRVABC59); test: inhibition of virus-induced CPE, Zika virus in Huh7 cells; format: cell-based; details: Huh-7, 4 hour pretreatment, MOI 0.001, Lefamulin as acetate
Procedure: The Zika virus strain PRVABC59 obtained from ATCC (catalog VR-1843) […] was grown in Rhesus monkey kidney cells for the production of stock virus pools.
as §1

[7] = tested on: influenza A/Puerto Rico/8/34 (H1N1); format: in vivo, BALB/c mice
[8] = tested on: alpha coronavirus 229E (HCoV-229E); test: inhibition of virus-induced CPE, CoV229E in MRC-5 cells (XTT); format: cell-based; details: for EC50: Human coronavirus 229E, MOI 0.001, read-out: EC50
Procedure: The antiviral compound Remdesivir served as positive control.
Lefamulin (as acetate) was evaluated using different treatment conditions of 4 h, 1 h or 0 h incubation prior to virus addition and addition 1 h after infection For this particular set of experiments, coronavirus was diluted 1:200 in assay medium and added at 100 μL/well to achieve approximately 90% cell killing in the untreated virus control wells (MOI of 0.001).

[9] = tested on: Measles virus (strain Edmonston); test: microbe, parasite or virus in culture; format: cell-based
[10] = cell viability of uninfected Huh7 cells; details: human
[11] = tested on: mice challenged with lipopolysaccharide (LPS); test: LPS induced lung neutrophilia model, BALF cell counts (Example 2); details: 4 h post LPS
[12] = cell viability of uninfected HeLa cells; details: human
in vitro [13] = details: dog
HEp2 cells = test: cell viability of uninfected HEp2 cells (XTT); details: Example 8
[14] = tested on: human respiratory syncytial virus (strain RSVA2); test: inhibition of virus-induced CPE, RSVA2 in HEp2 cells (XTT); details: human respiratory syncytial virus
[15] = tested on: human respiratory syncytial virus (strain RSVA2); details: Example 8
[16] = tested on: human rhinovirus strain HRV16 strain 11757; test: inhibition of virus-induced CPE, human rhinovirus in H1-HeLa cells; format: cell-based; details: Human rhinovirus sp., 4 hour pretreatment, MOI 0.0005, Lefamulin as acetate
Procedure: as §1

MRC-5 cells = details: for cytotoxic effect on the viability of the cell control: Example 6
Huh7 cells = test: cell viability of uninfected Huh7 cells; details: Example 12 (Dengue assay)
HeLa cells = test: cell viability of uninfected HeLa cells; details: Example 11
[17] = Lefamulin 35, 70 and 140 mg/kg SC half an hour prior to IN LPS, vs LPS challenge (p<0.05)
[18] = 10, 30, or 100 mg/kg SC pre-treatment
[19] = 10, 30, or 100 mg/kg SC pre-treatment, 4 h post LPS
[20] = high dose: 105 mg/kg/day SC in three injections until day 3, then 70 mg/kg twice daily
[21] = high dose, Day 6, vs vehicle treated control

Question: Which inhibition at 5 µM [1] does the source give for C=C[C@]1(C)C[C@@H](OC(=O)CS[C@@H]2CC[C@@H](N)C[C@H]2O)[C@]2(C)C(C)CC[C@]3(CCC(=O)[C@H]32)[C@@H](C)[C@@H]1O (stereo partly drawn) [Lefamulin, 14-O-{[(1R, 2R, 4R)-4-amino-2-hydroxy-cyclohexylsulfanyl]-acetyl}-mutilin] here?
Answer: 18.4%

Question: And the EC50 ([2]; MOI 0.001, Lefamulin as acetate)?
Answer: 6.79 µM

Question: What about the CC50 (in vitro [3]) of the same molecule?
Answer: 24.1 µM

Question: And the “neutrophil cell count in BALF” value [4, 17]?
Answer: statistically significant reduction

Question: What about the “total cell count in BALF” value [4, 17] of the same molecule?
Answer: statistically significant reduction

Question: And the “cell influx (BALF)” value ([4]; highest dose of 140 mg/kg SC)?
Answer: Almost complete impairment

Question: What about the “MMP9 concentrations in lung homogenate” value ([5]; 10 mg/kg SC) of the same molecule?
Answer: did not alter

Question: And the “reduction of MMP9 levels in lung homogenate” value ([5]; 30 mg/kg SC)?
Answer: 26%

Question: And the “reduction of MMP9 levels in lung homogenate” value ([5]; 100 mg/kg SC)?
Answer: 53%

Question: What about the “reduction of IL-1β level in lung homogenate” value ([5]; 100 mg/kg SC pre-treatment) of the same molecule?
Answer: 24%

Question: And the “CXCL1 level in lung homogenate” value [5, 18]?
Answer: significantly reduced

Question: What about the “CXCL2 level in lung homogenate” value [5, 18] of the same molecule?
Answer: significantly reduced

Question: What about the “reduction of IL-6 level in lung homogenate” value [5, 19] of the same molecule?
Answer: ≥ 50%

Question: And the “reduction of TNF-α level in lung homogenate” value [5, 19]?
Answer: ≥ 50%

Question: And the “GM-CSF in lung homogenate” value ([5]; all doses tested (10, 30, 100 mg/kg SC))?
Answer: almost completely inhibited

Question: What about the “LPS-induced CCL2 increase in the lung homogenate” value ([5]; all investigated doses (10, 30, 100 mg/kg SC), Valnemulin particularly at 10 and 30 mg/kg) of the same molecule?
Answer: completely inhibited

Question: And the EC50 [6]?
Answer: 2.78 µM

Question: What about the “B cells (BALF)” value ([7]; Day 6) of the same molecule?
Answer: reduction was only significant at the highest dose

Question: What about the “infiltration of CD4 cells in the lung” value ([7]; Day 6, both doses tested) of the same molecule?
Answer: decreased

Question: What about the “infiltration of CD8 cells in the lung” value ([7]; Day 6, both doses tested) of the same molecule?
Answer: decreased

Question: And the “infiltration of NK cells in the lung” value ([7]; Day 6, both doses tested)?
Answer: decreased

Question: What about the “neutrophils infiltration (BALF)” value ([7]; Day 6, both doses tested) of the same molecule?
Answer: significantly decreased

Question: What about the “total immune cell infiltration in the lung (BALF flow cytometry)” value ([7]; Day 6, both doses tested, p<0.05) of the same molecule?
Answer: significantly decreased

Question: What about the “inflammatory monocyte infiltration in the lung” value ([7]; Day 6, higher dose) of the same molecule?
Answer: significantly reduced

Question: And the “lung viral titres (TCID50 on MDCK cells)” value ([7]; Lefamulin at both doses, Oseltamivir positive control, Day 3 and Day 6, vs vehicle treated control)?
Answer: reduced

Question: What about the bodyweight ([7]; at the investigated doses (low and high dose SC)) of the same molecule?
Answer: did not have a significant effect

Question: What about the “clinical scores compared to vehicle” value [7, 20] of the same molecule?
Answer: increase

Question: What about the “survival compared to vehicle” value [7, 20] of the same molecule?
Answer: decrease

Question: And the “alveolar inflammation (histopathology)” value [7, 21]?
Answer: significant reduction

Question: And the “bronchial degeneration (histopathology)” value [7, 21]?
Answer: significant reduction

Question: And the overall histopathology score [7, 21]?
Answer: significant reduction

Question: What about the “macroscopically evaluated lung consolidation” value ([7]; low dose: 35 mg/kg SC twice daily, Day 6) of the same molecule?
Answer: significant improvement

Question: What about the “survival until day 6” value ([7]; lower dose: 35 mg/kg SC twice daily, Day -1 to Day 6) of the same molecule?
Answer: 90%

Question: What about the “reduction of viral CPE” value ([8]; 10 µM) of the same molecule?
Answer: 91.82%

Question: What about the “reduction of viral CPE” value ([8]; 1 h, 50 µM) of the same molecule?
Answer: 86.83%

Question: And the EC50 ([8]; MRC5, 1 h, Example 7, 1 h post-infection)?
Answer: 15.1 µM

Question: And the EC50 ([8]; MRC5, Example 6, MRC-5 cells, 4 h incubation prior to virus, 6 days post-infection, Lefamulin as acetate, Tiamulin as fumarate)?
Answer: 3.87 µM

Question: And the EC50 ([8]; MRC5, Example 7, 0 h pretreatment)?
Answer: 3.08 µM

Question: And the EC50 ([8]; MRC5, Example 7, 1 h pretreatment)?
Answer: 2.16 µM

Question: What about the EC50 ([8]; MRC5, Example 7, 4 h pretreatment) of the same molecule?
Answer: 2.18 µM

Question: And the EC50 ([9]; Measles morbillivirus, HeLa)?
Answer: 0.89 µM

Question: What about the CC50 at 6 days ([10]; TC50, Example 12 (Dengue assay)) of the same molecule?
Answer: 23.3 µM

Question: What about the CC50 at 6 days ([10]; TC50, Example 13 (Zika assay)) of the same molecule?
Answer: 23.4 µM

Question: What about the “total cell counts in BALF, significance of change” value ([11]; 100 mg/kg SC, p<0.05) of the same molecule?
Answer: statistically significant

Question: And the “total cell counts in BALF” value ([11]; 10, 30, or 100 mg/kg SC 30 min before LPS)?
Answer: reduced dose-dependently

Question: And the “lymphocyte cell counts in BALF” value ([11]; 10, 30 and 100 mg/kg SC)?
Answer: not significantly affected

Question: And the “macrophage cell counts in BALF” value ([11]; 10, 30 and 100 mg/kg SC)?
Answer: not significantly affected

Question: What about the “neutrophil cells in BALF” value ([11]; 10, 30 and 100 mg/kg SC) of the same molecule?
Answer: dose-dependent and significant reduction

Question: And the CC50 at 6 days [12]?
Answer: 72.7 µM

Question: What about the CC50 (in vitro [13]) of the same molecule?
Answer: 23.8 µM

Question: What about the “cytotoxic effect on the viability of the cell control” value (shortened to “cytotoxic effect on the viability”) (HEp2 cells; 10 μM and 50 μM) of the same molecule?
Answer: no cytotoxic effect

Question: What about the “cytotoxic effect on the viability” value (HEp2 cells; 100 μM) of the same molecule?
Answer: cytotoxic effect

Question: What about the cytotoxicity (MDCK cells; 50 μM) of the same molecule?
Answer: cytotoxicity was observed

Question: And the “concentrations cytotoxic to MDCK cells” value (MDCK cells; Example 15)?
Answer: greater than 23 μM

Question: What about the EC50 ([14]; HEp-2, Example 8, HEp2 cells, 4 h incubation prior to virus, MOI 0.001, 6 days post-infection, Lefamulin as acetate, Tiamulin as fumarate) of the same molecule?
Answer: 5.34 µM

Question: And the EC50 ([14]; HEp-2, Example 9, MOI 0.0004)?
Answer: 2.34 µM

Question: And the EC50 ([14]; HEp-2, Example 9, MOI 0.0008)?
Answer: 28.7 µM

Question: What about the EC50 ([14]; HEp-2, Example 9, MOI 0.001) of the same molecule?
Answer: 32.3 µM

Question: And the EC50 ([14]; HEp-2, Example 9, MOI 0.003)?
Answer: > 63.2 µM

Question: And the “reduction of viral CPE” value ([15]; 10 μM)?
Answer: 92.17%

Question: What about the “reduction of viral CPE” value ([15]; 50 μM) of the same molecule?
Answer: 100%

Question: What about the EC50 [16] of the same molecule?
Answer: 9.34 µM

Question: And the “cytotoxic effect on the viability” value (MRC-5 cells; 10 μM)?
Answer: no cytotoxic effect

Question: And the “cytotoxic effect on the viability” value (MRC-5 cells; 50 μM)?
Answer: cytotoxic effect

Question: What about the CC50 (MRC-5 cells; human, 6 days) of the same molecule?
Answer: > 50 µM

Question: What does the source list for NC(=O)c1ncn([C@@H]2O[C@H](CO)[C@@H](O)[C@H]2O)n1 [Ribavirin, reference compound]?
Answer: EC50 ([2]; MOI 0.001): 4.73 µg/mL; EC50 ([9]; HeLa cells, 4 h pre-incubation, MOI 0.008): 1.88 µg/mL; TC50 (Huh7 cells): 48.5 µg/mL (≈ 199 µM); TC50 (HeLa cells): 21.6 µg/mL (≈ 88.4 µM)
